Values joined by “and” are separate entries in the source; they are usually repeats but may differ in a detail not shown here. Identical values can stand only once.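 Five concentrations, 48 hours, 96-well plates. GI50 = concentration required for 50% inhibition of growth. TGI: total growth inhibition.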
Key:
Test in all cases: inhibition of tumour cell growth, NCI panel, 48 h
[1] = system: HCC-2998 colon
[2] = system: NCI-H226 lung
[3] = system: PC-3 prostate
[4] = system: SF-268 CNS
[5] = system: SF-295 CNS
[6] = system: SN12C renal
[7] = system: T-47D breast
[8] = system: UACC-62 melanoma
[9] = system: SK-OV-3 ovarian
[10] = system: SNB-19 CNS

SMILES	GI50 [1] [µM]	TGI [1] [µM]	GI50 [2]	TGI [2] [µM]	GI50 [3] [µM]	TGI [3] [µM]	GI50 [4] [µM]	TGI [4] [µM]	GI50 [5] [µM]	TGI [5] [µM]	GI50 [6] [µM]	TGI [6]	GI50 [7]	TGI [7] [µM]	GI50 [8] [µM]	TGI [8]	GI50 [9] [µM]	TGI [9] [µM]	GI50 [10] [µM]	TGI [10] [µM]
Cc1cccc2c(=O)c3c(sc12)c(NCCCNCCO)nc1ccccc13	1.58	3.06	1.6 µM	3.33	1.29	2.75	1.4	2.97	1.72	3.18	1.56	3.12 µM	1.57 µM	3.5	1.67	3.17 µM				
c1cc[c]([Ge]([O]c2cccc3cccnc23)([c]2ccccc2)[c]2ccccc2)cc1	2.54	6.16	6.33 µM	23			3.55	15	11.2	23.8	4.52	16.5 µM			4.6	16.4 µM	3.3	8.56	7.15	19.5
CC[C@]12CN3CCc4c([nH]c5ccccc45)[C@@](C(=O)OC)(c4cc5c(cc4OC)N(C)[C@H]4[C@@](O)(C(=O)OC)[C@H](OC(C)=O)[C@]6(CC)C=CCN7CC[C@]54[C@@H]76)CC(C3)[C@H]1O2 (some centres not stated)	0.226		0.462 µM	> 50	0.222	> 100	0.226	> 68.1		> 12.3	0.408	15.4 µM and > 50 µM			0.224	76.9 µM and > 50 µM		> 100	0.214	> 100
CCCCCSc1ccc2nc(NC(=O)OCC)sc2c1	4.88	> 100	1.95 µM	> 100	0.798	> 100	0.866	> 100	0.394	10.6	0.959	> 100 µM	0.583 µM	> 100			0.535	> 100	0.778	> 100
COc1ccc2c(n1)Sc1nc3ccccc3nc1N2				34		> 100		> 100		> 100		71.6 µM		> 100		43.4 µM		> 100		> 100
CCCCCCOC(=O)CC1=C(C)/C(=C/c2[nH]c(-c3ccc[nH]3)cc2OC)N=C1C			0.137 µM	1.06	0.0487	1.78	0.0818	2	0.12	0.466			0.0367 µM	0.545			0.279	1.24	0.271	2.76
COc1ccc2cc3c4cc(OC)c(OC)cc4ccn3c2c1		> 100		> 100				> 100		> 100		> 100 µM				> 100 µM		> 100		> 100
COC(=O)c1c2c(c(C)[n+]([O-])c1C)C(=O)C(NCc1ccccc1)=CC2=O	2.8	7.98	2.81 µM	9.9			2.81	9.69	2.6	7.5	2.13	5.48 µM	1.88 µM	5.35	1.8	3.56 µM	2.81	9.63	3.25	11.2
Cc1nc2ccccc2c(=O)n1/N=C(\N=Nc1ccccc1)c1ccccc1Cl		> 100		> 100				> 100		> 100		> 68.1 µM				> 100 µM		45.8		> 100
COc1cc2c3c(n(CCCN=[N+]=[N-])c(=O)c2cc1OC)-c1ccccc1C3=O	94.2	> 100			> 100	> 100	> 100	> 100	2.87	9.86	13.7	> 100 µM	> 100 µM	> 100	2.63	27.6 µM	> 100	> 100	52.7	> 100
CC(=O)OCC1OC(SC2=N/C(=C\c3ccc(Br)s3)C(=O)N2c2ccccc2)C(OC(C)=O)C(OC(C)=O)C1OC(C)=O (configuration not stated)		> 100	46.9 µM and 15.7 µM	> 100		> 100		> 100		> 100		> 100 µM	96.5 µM and 27.8 µM	> 100		> 100 µM				> 100
OCC1OC(N2C=C(c3nc4ccccc4s3)C3C=CC=CC32)C(O)C(O)C1O (configuration not stated)			14.5 µM	> 50	13	> 50	15	> 50	13.4	37.9	28.8	> 50 µM			12.5	36.8 µM	41.1	> 50	22.1	> 50
O/N=C1/CCCC/C1=C\c1ccc(Cl)c(Cl)c1		75.3						> 100		> 100		42.3 µM				> 100 µM		86.9		91.6
O=CCCn1[nH]c(=O)ccc1=O		> 100		> 100				> 100		> 100		> 100 µM				> 100 µM				> 100
O=C1CCCc2ccc([N+](=O)[O-])c(O)c21		> 100		> 100				> 100		> 100		> 100 µM				> 100 µM		> 100		> 100
COc1ccc(C(=O)/C=C/c2cc(-c3ccc(OC)c(OC)c3)n[nH]2)cc1OC	1.74	3.19	1.66 µM	4.23	1.98	35.7	2.09	9.82	1.6	5.05	1.92	4.82 µM	1.36 µM	6.65			3.13	33.3	1.67	4.16
CCCCCCCCCCCCCCCCn1cc[n+](C)c1	0.277	1.13			0.183	0.58	0.837	2.12	0.318	1.43	0.667	1.89 µM	0.398 µM		0.538	1.88 µM	0.941	3.17	0.705	2
COC(=O)CCc1n(Cc2ccc3ccccc3c2)c2ccccc2[n+]1Cc1ccc2ccccc2c1	0.91	2.43			0.402	1.74	1.38	2.99	1.32	2.86	0.833	2.19 µM	0.222 µM	2.65	0.361	1.59 µM	1.89	4.85	0.582	1.98
COc1ccc(Nc2ncc(I)c(NCCCNC(=O)C3CCC3)n2)cc1	13.5	67.3	3.91 µM	67.1			2.01	29.9	3.5	> 100	1.46	> 100 µM	28.4 µM	79	17.2	43.2 µM	4.81	25.5	5.26	> 100

SMILES	GI50 [1] [µM]	TGI [1] [µM]	GI50 [2]	TGI [2] [µM]	GI50 [3] [µM]	TGI [3] [µM]	GI50 [4] [µM]	TGI [4] [µM]	GI50 [5] [µM]	TGI [5] [µM]	GI50 [6] [µM]	TGI [6]	GI50 [7]	TGI [7] [µM]	GI50 [8] [µM]	TGI [8]	GI50 [9] [µM]	TGI [9] [µM]	GI50 [10] [µM]	TGI [10] [µM]
NC1=NN(c2ccccc2)C(=O)C1C(=O)C(=O)Nc1ccccc1 (configuration not stated)		> 100		> 100				> 100		> 100		> 100 µM				> 100 µM		> 100		> 100
COc1ccc(C2(Cl)C(Cl)(C(F)(F)F)C2(Cl)C(F)(F)F)cc1 (configuration not stated)		29.8		28.9				29		29		29.2 µM				26.4 µM		31.2		29.1
COc1cc(CSc2nc3ccc(Cl)cc3c(=O)n2Cc2ccccc2)cc(OC)c1OC	6.18	> 100	12.3 µM	> 100	3.48	> 100	7.33	> 100			5.2	> 100 µM	3.92 µM	> 100	2.34	25.2 µM	3.23	17.7	5.46	> 100
C=C(C)CC(C(=O)O)c1ccc(C)cc1 (configuration not stated)								> 100		> 100		> 100 µM				> 100 µM				> 100
C[C@]12Cc3conc3C(O)=C1CC[C@@H]1C2CC[C@@]2(C)C1CC[C@@H]2O (some centres not stated)				56.8				73.1		88.3		> 100 µM				54.6 µM		89		> 100
Cn1cnc([N+](=O)[O-])c1Sc1n[nH]c(-c2ccc(Cl)cc2)n1		40.6		34.5				50.7		58.8		31.6 µM				28.4 µM		95.7		51
Cc1ccc(/C(=N/NS(=O)(=O)c2cc(C)c(Cl)cc2Cl)Sc2cc(Cl)c(C)cc2S(N)(=O)=O)cc1			> 100 µM	> 100	> 100	> 100	> 100	> 100	> 100	> 100	> 100	> 100 µM	> 100 µM	> 100	> 100	> 100 µM	> 100	> 100	> 100	> 100
CC(=O)N1c2ccccc2N(C(C)=O)C1c1ccc(C2N(C(C)=O)c3ccccc3N2C(C)=O)[nH]1		> 100		> 100				> 100		> 100		> 100 µM				> 100 µM		> 100		> 100
CCN1/C(=C/C(C)=C/c2sc3ccc4ccccc4c3[n+]2CC)Sc2ccc3ccccc3c21			0.225 µM	1.27	0.085	1.46	0.198	0.678	0.121	0.674	0.189	1.05 µM			0.31	1.8 µM	0.236	0.78		
C=CC12CCCCC1CC(C(=O)OC)=C(O)C2 (configuration not stated)		> 100		> 100				> 100		> 100		> 100 µM				> 100 µM		> 100		> 100
O=S(O)O.O=S(O)O.[Co].[NH2-].[NH2-].[NH2-].[NH2-]			> 100 µM	> 100	> 100	> 100	> 100	> 100	> 100	> 100	> 100	> 100 µM	> 100 µM	> 100	> 100	> 100 µM	> 100	> 100	> 100	> 100
O=CN/C=C/c1ccccc1		> 100		> 100		> 100		> 100		> 100		> 100 µM				> 100 µM		> 100		> 100
CCOC(=O)C1CC(=O)C=C2CCCCC21 (configuration not stated)		> 100						> 100		> 100		> 100 µM				> 100 µM		> 100		> 100
N#Cc1c(N)nc2c(c1-c1ccc(Cl)cc1)COc1ccc(F)cc1-2	23.3	68.8			29.7	65.7	37.1	> 100	16	37.1	19.1	47.7 µM	43.7 µM	> 100	15.1	34.2 µM	> 100	> 100		
C=CCCn1nc(-c2ccccc2)oc1=O		> 100		> 100				> 100		> 100		> 100 µM				> 100 µM		> 100		> 100
C[C@@H]1CC[C@@]2(C)OC(c3ccccc3)[C@H](CO)N2C1=O (some centres not stated)								> 100		> 100		> 100 µM				> 100 µM				> 100
COc1ccc(O)c(/C=N\Nc2ccccc2)c1		5.33		> 100		> 100		> 100				> 100 µM		> 100		12.3 µM		> 100		> 100
N#CC(Sc1ccccc1)C(N)=O (configuration not stated)		> 100		> 100				> 100		> 100		> 100 µM				> 100 µM		> 100		> 100

Source: PubChem BioAssay (NCI)
